Reference: patent US20050004079A1, “Pharmaceutical compositions for intranasal administration of [2-(8,9-dioxo-2,6-diazabicyclo[5.2.0]non-1(7)-en-2-yl)alkyl] phosphonic acid and derivatives and methods of use thereof” (Wyeth, priority 2003, published 2005)
Read-outs that look alike come from different tables or passages of the source.

Columns and labels:
[1] = test system: Prostaglandin E2-induced thermal hypersensitivity; experiment: In vivo efficacy in rats: Prostaglandin E2-induced thermal hypersensitivity (warm-water tail withdrawal); design: species or system Spraque-Dawley rats; conditions: for % MPE (reversal of PGE2-induced thermal hypersensitivity): rat, 30 min before PGE2
Experimental: Subjects: Individually housed Spraque-Dawley rats had free access to rat chow and water. A 12-h light/12-h dark cycle was in effect (lights on from 6:00 am to 6:00 pm). Animal maintenance and research were conducted in accordance with the guidelines provided by the National Institutes of Health Committee on Laboratory Animal Resources. These subjects were used in the tests below.
Procedure: The terminal 10 cm of the tail was placed into a thermos bottle containing water warmed to 38, 42, 46, 50 or 54° C. The latency in seconds for the animal to remove the tail from the water was used as a measure of nociception.
Following the assessment of baseline thermal sensitivity, thermal hypersensitivity was produced by a 50 μL injection of 0.1 mg prostaglandin E2 (PGE2) into the terminal 1 cm of the tail. Temperature-effect curves were generated before (baseline) and after (15, 30, 60, 90 and 120 min) the PGE2 injection.
The ability of compounds to reverse PGE2-induced thermal hypersensitivity was assessed using a single dose time-course procedure. Under this procedure, a single dose of the compound to be tested was administered intraperitoneally (IP), orally (PO) or intranasally (IN) 30 min before the injection of PGE2. […] sensitivity was assessed 30 min after PGE2 injection. For the IP and PO administration, compound was administered in a volume of 1 ml/kg with the dose administered calculated as mg/kg. For IN administration, rats were lightly anesthetized with 3.5% halothane in O2 and compound or vehicle was administered in a volume of 25 μL solution dropped into each nostril with the dose administered in absolute mg.
Data Analysis: The temperature that produced a half-maximal increase in the tail-withdrawal latency (i.e., T10) was calculated from each temperature-effect curve. The T10 was determined by interpolation from a line drawn between the point above and the point below 10 sec on the temperature-effect curve. For these studies, thermal hypersensitivity was defined as a leftward shift in the temperature-effect curve and a decrease in the T10 value. Reversal of thermal hypersensitivity was defined as a return to baseline of the temperature-effect curve and the T10 value and was calculated according to the following equation: [formula] in which T10^drug+PGE2 is the T10 after a drug in combination with PGE2, T10^PGE2 is the T10 after PGE2 alone, and T10^baseline is the T10 under control conditions. A % MPE value of 100 indicates a complete return to the baseline thermal sensitivity observed without the PGE2 injection.

[2] = monkey, in vivo, iv, 1.1 mg/kg
[3] = in vivo; conditions: monkey, po

AUC [2]: 1.67 ughr/ml
AUC ([3]; 20 mg/kg): 1740 ng·h/mL
Cmax ([3]; 20 mg/kg): 147 ng/mL
bioavailability ([3]; 100 mg/kg): ~2.5%
Compound: O=c1c2c(c1=O)N(CCP(=O)(O)O)CCCN2 [Compound A, [2-(8,9-dioxo-2,6-diazabicyclo[5.2.0]non-1(7)-en-2-yl)ethyl]phosphonic acid]
in vivo efficacy of intranasal and intraperitoneal administration compared with oral administration ([1]; rat PGE2-induced thermal hypersensitivity model, intranasal and intraperitoneal found similar): ten folds higher
% MPE (reversal of PGE2-induced thermal hypersensitivity) ([1]; IP, 1 mg/kg): −7%
% MPE (reversal of PGE2-induced thermal hypersensitivity) ([1]; IP, 3 mg/kg): 66%
% MPE (reversal of PGE2-induced thermal hypersensitivity) ([1]; IP, 10 mg/kg, 10 mg/kg): 79%
% MPE (reversal of PGE2-induced thermal hypersensitivity) ([1]; PO, 10 mg/kg): 5%
% MPE (reversal of PGE2-induced thermal hypersensitivity) ([1]; PO, 30 mg/kg): 23%
% MPE (reversal of PGE2-induced thermal hypersensitivity) ([1]; PO, 100 mg/kg, 100 mg/kg): 87%
